The record followed here is patent US8318762B2, “Pyrazolospiroketone acetyl-CoA carboxylase inhibitors” (Pfizer Inc., priority 2008, dated 2012).

Molecules are shown by their SMILES.

Usually IC50 stands for the concentration at which inhibition is half-maximal.

For one assay, the target named is T1, recombinant human ACC2 (Homo sapiens, UniProt O00763).
T1 construct: a full length Cytomax clone of ACC2 was purchased from Cambridge Bioscience Limited; made in house; host or cells: CHO cells (tetracycline induction, pcDNA5 FRT TO-TOPO); purified on a Softlink Soft Release Avidin column
The assay is described as follows: Measurement of human ACC2 inhibition (recombinant hACC2 Transcreener ADP detection FP assay). The class given is biochemical. To be noted: recombinant hACC2 transcreener assay; read-out: rhACC2 IC50. Summed up:
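Purified hACC2 from tetracycline-induced CHO cells (avidin-column eluate) was run in 50 mM HEPES pH7.5, 5 mM MgCl2, 5 mM citrate, 2 mM DTT, 0.5 mg/mL BSA with 30 μM acetyl-CoA, 50 μM ATP and 8 mM KHCO3. Reaction lasted 1 hour at room temperature; ADP was detected by Transcreener FP after another 1 hour.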

In assay [1] the test system is malonyl-CoA levels in muscle tissue. Description: Acute in vivo assessment of ACC inhibition: malonyl-CoA levels in muscle tissue (quadriceps). Also on record: species or system male Sprague-Dawley Rats. To be noted: relative to chow-fed vehicle control group, % decrease +/- SEM. The method, then:
(§1) The ACC inhibitory activity of the compound of the present invention can be confirmed in vivo by evaluation of their ability to reduce malonyl-CoA levels in liver and muscle tissue from treated animals.
(§2) Measurement of malonyl-CoA production inhibition in experimental animals. In this method, male Sprague-Dawley Rats, maintained on standard chow and water ad libitum (225-275 g), were randomized prior to the study. Animals were either fed, or fasted for 18 hours prior to the beginning of the experiment. Two hours into the light cycle the animals were orally dosed with a volume of 5 mL/kg, (0.5% methyl cellulose; vehicle) or with the appropriate compound (prepared in vehicle). Fed vehicle controls were included to determine baseline tissue malonyl-CoA levels while fasted animals were included to determine the effect fasting had on malonyl-CoA levels. One hour after compound administration the animals were asphyxiated with CO2 and the tissues were removed. Specifically, blood was collected by cardiac puncture and placed into BD Microtainer tubes containing EDTA (BD Biosciences, NJ), mixed, and placed on ice. Plasma was used to determine drug exposure. Liver and quadriceps were removed, immediately freeze-clamped, wrapped in foil and stored in liquid nitrogen.
(§3) Tissues were pulverized under liquid N2 to ensure uniformity in sampling. Malonyl-CoA was extracted from the tissue (150-200 mg) with 5 volumes 10% […] in Lysing Matrix A (MP Biomedicals, PN 6910) in a FastPrep FP120 (Thermo Scientific, speed=5.5; for 45 seconds). The supernatant containing malonyl-CoA was removed from the cell debris after centrifugation at 15000×g for 30 minutes (Eppendorf Centrifuge 5402). Samples were stably frozen at −80 C until analysis is completed.
(§4) Analysis of malonyl CoA levels in liver and muscle tissue can be evaluated using the following methodology.
(§5) The method utilizes the following materials: Malonyl-CoA tetralithium salt and malonyl-^13C3-CoA trilithium salt which were purchased from Isotec (Miamisburg, Ohio, USA), sodium perchlorate (Sigma, cat no. 410241), trichloroacetic acid (ACROS, cat no. 42145), phosphoric acid (J. T. Baker, cat no. 0260-01), ammonium formate (Fluke, cat no. 17843), methanol (HPLC grade, J. T. Baker, cat no. 9093-33), and water (HPLC grade, J. T. Baker, 4218-03) were used to make the necessary mobile phases. Strata-X on-line solid phase extraction columns, 25 μm, 20 mm×2.0 mm I.D (cat no. 00M-S033-B0-CB) were obtained from Phenomenex (Torrance, Calif., USA). SunFire C18 reversed-phase columns, 3.5 μm, 100 mm×3.0 mm I.D. (cat no. 186002543) were purchased from Waters Corporation (Milford, Mass., USA).
(§6) This method may be performed utilizing the following equipment. Two-dimensional chromatography using an Agilent 1100 binary pump, an Agilent 1100 quaternary pump and two Valco Cheminert 6-port two position valves. Samples were introduced via a LEAP HTC PAL auto sampler with Peltier cooled stack maintained at 10° C. and a 20 μL sampling loop. The needle wash solutions for the autosampler are 10% trichloroacetic acid in water (w/v) for Wash 1 and 90:10 methanol:water for Wash 2. The analytical column (Sunfire) was maintained at 35° C. using a MicroTech Scientific Micro-LC Column Oven. The eluant was analyzed on an ABI Sciex API3000 triple quadrupole mass spectrometer with Turbo Ion Spray.
(§7) Two-dimensional chromatography was performed in parallel using distinct gradient elution conditions for on-line solid phase extraction and reversed-phase chromatography. The general design of the method was such that the first dimension was utilized for sample clean-up and capture of the analyte of interest followed by a brief coupling of both dimensions for elution from the first dimension onto the second dimension. The dimensions were subsequently uncoupled allowing for gradient elution of the analyte from the second dimension for quantification while simultaneously preparing the first dimension for the next sample in the sequence. […]

For assay [2], the system named is malonyl-CoA levels in liver. The assay is described as follows: Acute in vivo assessment of ACC inhibition: malonyl-CoA levels in liver tissue. To be noted: relative to chow-fed vehicle control group, % decrease +/- SEM. Also on record: species or system male Sprague-Dawley Rats. As for the experimental part:
as §1, §2, §3, §4, §5, §6, §7

T1 sequence (O00763 whole entry): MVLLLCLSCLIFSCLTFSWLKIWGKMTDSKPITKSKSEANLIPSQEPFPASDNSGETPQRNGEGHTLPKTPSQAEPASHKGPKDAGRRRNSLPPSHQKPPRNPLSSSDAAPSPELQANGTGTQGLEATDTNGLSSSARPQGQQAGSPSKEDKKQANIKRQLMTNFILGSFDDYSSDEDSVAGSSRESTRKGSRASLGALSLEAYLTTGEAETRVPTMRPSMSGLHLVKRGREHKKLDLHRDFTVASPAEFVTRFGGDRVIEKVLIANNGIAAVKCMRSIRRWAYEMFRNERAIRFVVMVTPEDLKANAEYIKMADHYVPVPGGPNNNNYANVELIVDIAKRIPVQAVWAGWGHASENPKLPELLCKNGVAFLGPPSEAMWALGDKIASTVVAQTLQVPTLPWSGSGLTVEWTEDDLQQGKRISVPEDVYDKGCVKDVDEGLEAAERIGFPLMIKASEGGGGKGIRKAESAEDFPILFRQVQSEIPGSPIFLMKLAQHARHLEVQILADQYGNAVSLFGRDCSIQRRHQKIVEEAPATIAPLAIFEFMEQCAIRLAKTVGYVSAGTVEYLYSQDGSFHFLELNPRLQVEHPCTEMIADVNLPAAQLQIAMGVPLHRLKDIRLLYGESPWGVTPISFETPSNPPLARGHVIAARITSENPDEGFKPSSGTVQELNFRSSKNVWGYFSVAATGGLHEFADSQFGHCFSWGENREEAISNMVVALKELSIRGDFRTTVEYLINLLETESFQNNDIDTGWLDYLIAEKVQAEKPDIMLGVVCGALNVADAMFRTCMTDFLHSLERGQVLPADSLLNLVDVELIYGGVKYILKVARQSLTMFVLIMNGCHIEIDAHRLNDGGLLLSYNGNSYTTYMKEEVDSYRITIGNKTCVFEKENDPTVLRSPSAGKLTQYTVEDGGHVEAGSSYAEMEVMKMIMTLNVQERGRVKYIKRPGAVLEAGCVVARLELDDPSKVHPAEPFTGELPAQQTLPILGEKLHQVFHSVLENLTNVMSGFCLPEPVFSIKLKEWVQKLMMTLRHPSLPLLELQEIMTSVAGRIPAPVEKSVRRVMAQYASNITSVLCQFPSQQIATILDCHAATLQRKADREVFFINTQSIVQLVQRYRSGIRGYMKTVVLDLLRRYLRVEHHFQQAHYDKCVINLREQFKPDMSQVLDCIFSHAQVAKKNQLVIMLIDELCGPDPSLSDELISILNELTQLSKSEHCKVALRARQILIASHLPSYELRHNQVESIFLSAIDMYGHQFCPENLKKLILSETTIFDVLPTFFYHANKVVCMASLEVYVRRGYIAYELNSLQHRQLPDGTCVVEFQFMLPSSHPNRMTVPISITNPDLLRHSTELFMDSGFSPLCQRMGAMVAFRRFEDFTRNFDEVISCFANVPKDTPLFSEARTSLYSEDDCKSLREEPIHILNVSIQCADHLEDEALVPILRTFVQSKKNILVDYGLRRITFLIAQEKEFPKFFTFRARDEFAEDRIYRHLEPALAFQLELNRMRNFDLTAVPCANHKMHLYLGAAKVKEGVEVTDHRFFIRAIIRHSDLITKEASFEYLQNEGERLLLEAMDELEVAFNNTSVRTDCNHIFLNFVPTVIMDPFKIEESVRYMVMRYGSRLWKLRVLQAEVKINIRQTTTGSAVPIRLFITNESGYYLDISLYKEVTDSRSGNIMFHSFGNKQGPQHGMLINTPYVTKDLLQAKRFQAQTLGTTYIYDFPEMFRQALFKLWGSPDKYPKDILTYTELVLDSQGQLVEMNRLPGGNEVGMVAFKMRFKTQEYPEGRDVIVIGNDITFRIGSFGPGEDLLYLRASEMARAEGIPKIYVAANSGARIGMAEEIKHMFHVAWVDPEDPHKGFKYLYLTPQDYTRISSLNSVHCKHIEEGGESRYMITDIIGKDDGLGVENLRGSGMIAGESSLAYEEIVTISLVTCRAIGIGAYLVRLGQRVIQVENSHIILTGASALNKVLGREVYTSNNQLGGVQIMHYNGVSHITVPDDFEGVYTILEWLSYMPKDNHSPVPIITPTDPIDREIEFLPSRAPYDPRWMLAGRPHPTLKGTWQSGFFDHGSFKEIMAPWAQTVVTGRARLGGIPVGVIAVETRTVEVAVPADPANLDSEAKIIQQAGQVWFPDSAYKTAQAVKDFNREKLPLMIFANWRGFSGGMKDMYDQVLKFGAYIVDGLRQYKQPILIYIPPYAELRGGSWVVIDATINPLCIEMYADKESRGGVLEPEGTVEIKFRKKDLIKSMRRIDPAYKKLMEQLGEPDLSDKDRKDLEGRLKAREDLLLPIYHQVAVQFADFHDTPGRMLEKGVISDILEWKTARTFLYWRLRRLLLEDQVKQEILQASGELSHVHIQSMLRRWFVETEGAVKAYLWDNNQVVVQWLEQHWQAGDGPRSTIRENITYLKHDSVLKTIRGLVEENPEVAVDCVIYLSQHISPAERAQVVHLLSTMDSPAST

In the case of `Cc1n[nH]c2c(C)cc(C(=O)N3CCC4(CC3)CC(=O)c3nn(C(C)(C)C)cc3O4)cc12` [1.012], at recombinant human ACC2, the 50% inhibitory concentration (IC50) was found to be 2 nM. In addition, the “Percent decrease in Muscle Malonyl-CoA (quadriceps)” value (“Percent decrease … (quadriceps)” below) in assay [1] (dose 1 mg/kg) was 31.53 (3.58) %; in assay [1] (dose 3 mg/kg), 43.01 (4.24) %; in assay [1] (dose 10 mg/kg), 59.48 (5.28) %; in assay [1] (dose 30 mg/kg), 71.08 (2.18) %. Moreover, the “Percent decrease in Liver Malonyl-CoA” value in assay [2] (dose 1 mg/kg) was 40.32 (6.24) %; in assay [2] (dose 3 mg/kg), 54.87 (3.22) %; in assay [2] (dose 10 mg/kg) it was 75.72 (2.47) %; in assay [2] (dose 30 mg/kg), 86.52 (1.49) %.

As to `CCn1nc2c(c1C)OC1(CCN(C(=O)c3cc(C)c4[nH]nc(C)c4c3)CC1)CC2=O` [1.001], the IC50 at recombinant human ACC2 turned out to be 11 nM. Further, the “Percent decrease … (quadriceps)” value is given as 5.69 (8.73) % in assay [1] (dose 1 mg/kg), 2.90 (4.29) % in assay [1] (dose 3 mg/kg), 22.83 (5.72) % in assay [1] (dose 10 mg/kg) and 48.03 (2.63) % in assay [1] (dose 30 mg/kg). Further, the “Percent decrease in Liver Malonyl-CoA” value in assay [2] (dose 1 mg/kg) is reported as 28.29 (8.40) %; in assay [2] (dose 3 mg/kg), 30.37 (11.50) %; in assay [2] (dose 10 mg/kg), 45.45 (3.51) %; in assay [2] (dose 30 mg/kg), 54.31 (7.63) %.

In the case of `CCn1cc2c(n1)C(=O)CC1(CCN(C(=O)c3cc(C)c4[nH]nc(C)c4c3)CC1)O2` [1.003], on recombinant human ACC2, the IC50 was 11 nM. The “Percent decrease … (quadriceps)” value in assay [1] (dose 1 mg/kg) was −3.72 (8.87) %; in assay [1] (dose 3 mg/kg) it was 21.23 (8.81) %; in assay [1] (dose 10 mg/kg), 33.30 (4.83) %; in assay [1] (dose 30 mg/kg), 48.81 (3.51) %. For the same molecule, the “Percent decrease in Liver Malonyl-CoA” value is on record as 31.45 (4.12) % in assay [2] (dose 1 mg/kg), 47.61 (4.70) % in assay [2] (dose 3 mg/kg), 67.40 (5.67) % in assay [2] (dose 10 mg/kg) and 70.47 (2.48) % in assay [2] (dose 30 mg/kg).

On to `Cc1cc(C(=O)N2CCC3(CC2)CC(=O)c2nn(C(C)(C)C)cc2O3)cc2cn[nH]c12` [1.042], for which the IC50 on recombinant human ACC2 amounted to 4 nM. In addition, the “Percent decrease … (quadriceps)” value is 29.90 (5.21) % in assay [1] (dose 1 mg/kg), 27.60 (5.87) % in assay [1] (dose 3 mg/kg), 61.60 (5.38) % in assay [1] (dose 10 mg/kg) and 74.70 (1.37) % in assay [1] (dose 30 mg/kg). The “Percent decrease in Liver Malonyl-CoA” value in assay [2] (dose 1 mg/kg) is reported as 41.87 (2.70) %; in assay [2] (dose 3 mg/kg), 48.07 (8.08) %; in assay [2] (dose 10 mg/kg), 71.81 (2.36) %; in assay [2] (dose 30 mg/kg), 86.50 (0.72) %.

Turning to `CCn1cc2c(n1)C(=O)CC1(CCN(C(=O)c3cc(Cl)c4[nH]ncc4c3)CC1)O2` [1.062], the IC50 at recombinant human ACC2 turned out to be 43 nM.

Take `Cc1ccc2cc(C(=O)N3CCC4(CC3)CC(=O)c3nn(C(C)(C)C)cc3O4)ccc2n1` [15.001]: the IC50 on recombinant human ACC2 came to 26 nM.

Take `CCn1nc2c(c1C)OC1(CCN(C(=O)c3ccc4ncsc4c3)CC1)CC2=O` [10.001]: the IC50 on recombinant human ACC2 turned out to be 285 nM.

For the molecule `CC(C)(C)n1cc2c(n1)C(=O)CC1(CCN(C(=O)c3ccc4nc[nH]c4c3)CC1)O2` [3.010], on recombinant human ACC2, the IC50 is 12 nM.

As to `Cc1n[nH]c2c(C)cc(C(=O)N3CCC4(CC3)CC(=O)c3nn(C5CCCCC5)cc3O4)cc12` [1.008], the IC50 on recombinant human ACC2 was 21 nM.

Take `Cc1n[nH]c2c(C)cc(C(=O)N3CCC4(CC3)CC(=O)c3nn(C(C)C)cc3O4)cc12` [1.002]: the IC50 at recombinant human ACC2 came to 8 nM.

With `Cc1cc(C(=O)N2CCC3(CC2)CC(=O)c2nn(C(C)C)cc2O3)cc2[nH]cnc12` [3.007], the IC50 at recombinant human ACC2 came out at 24 nM.

As to `Cc1ccc2cc(C(=O)N3CCC4(CC3)CC(=O)c3nn(C(C)(C)C)cc3O4)ccc2c1` [6.005], the IC50 at recombinant human ACC2 was 48 nM.

`CCc1cc(C(=O)N2CCC3(CC2)CC(=O)c2nn(C(C)(C)C)cc2O3)cc2cn[nH]c12` [1.060]: the IC50 at recombinant human ACC2 is 6 nM.

With `Cc1cc(C(=O)N2CCC3(CC2)CC(=O)c2nn(C(C)C)c(C)c2O3)cc2cn[nH]c12` [1.040], the IC50 at recombinant human ACC2 turned out to be 15 nM.

`Cc1nc2cc(C(=O)N3CCC4(CC3)CC(=O)c3nn(C(C)(C)C)cc3O4)ccc2n1C` [8.009]: at recombinant human ACC2, the IC50 amounted to 47 nM.

Turning to `CCn1nc2c(c1C)OC1(CCN(C(=O)c3cc(OC)c4[nH]ncc4c3)CC1)CC2=O` [1.052], the IC50 at recombinant human ACC2 amounted to 33 nM.

Regarding `CC(C)(C)n1cc2c(n1)C(=O)CC1(CCN(C(=O)c3ccc4c(c3)CCC(=O)N4)CC1)O2` [13.004], the IC50 on recombinant human ACC2 came out at 33 nM.

As for `CCc1n[nH]c2c(OC)cc(C(=O)N3CCC4(CC3)CC(=O)c3nn(C5CCC5)cc3O4)cc12` [1.050], on recombinant human ACC2, the IC50 was 5 nM.

On to `CCn1nc2c(c1C)OC1(CCN(C(=O)c3cc(OC)c4oc(C)nc4c3)CC1)CC2=O` [9.005], for which the IC50 on recombinant human ACC2 turned out to be 179 nM.

Take `CC(C)(C)n1cc2c(n1)C(=O)CC1(CCN(C(=O)c3ccc4ncccc4c3)CC1)O2` [15.002]: at recombinant human ACC2, the IC50 was determined as 11 nM.

With `COc1cc(-n2nc3c(c2C)OC2(CCN(C(=O)c4cc(C)c5[nH]ncc5c4)CC2)CC3=O)ccc1C#N` [1.028], the IC50 on recombinant human ACC2 turned out to be 127 nM.

In the case of `CCn1nc2c(c1C)OC1(CCN(C(=O)c3ccc4[nH]ncc4c3)CC1)CC2=O` [1.068], the IC50 at recombinant human ACC2 stood at 84 nM.

Take `COc1cccc2cc(C(=O)N3CCC4(CC3)CC(=O)c3nn(C(C)(C)C)cc3O4)ccc12` [6.006]: the IC50 on recombinant human ACC2 worked out at 7 nM.

Turning to `CCn1nc2c(c1C)OC1(CCN(C(=O)c3cc(Cl)c4[nH]nc(C)c4c3)CC1)CC2=O` [1.111], the IC50 on recombinant human ACC2 stood at 12 nM.

On to `CCOc1cc(C(=O)N2CCC3(CC2)CC(=O)c2nn(C(C)C)cc2O3)cc2c(C)n[nH]c12` [1.120], for which the half-maximal inhibitory concentration (IC50) at recombinant human ACC2 stood at 6 nM.

Turning to `Cc1nc2c(C)cc(C(=O)N3CCC4(CC3)CC(=O)c3nn(C(C)C)cc3O4)cc2[nH]1` [3.001], the IC50 on recombinant human ACC2 came out at 28 nM.

For `CC(C)n1cc2c(n1)C(=O)CC1(CCN(C(=O)c3cc(F)c4nc[nH]c4c3)CC1)O2` [3.021], the IC50 on recombinant human ACC2 was 39 nM.

Consider `CCOc1cc(C(=O)N2CCC3(CC2)CC(=O)c2nn(C(C)C)cc2O3)cc2c(CC)n[nH]c12` [1.121], for which the IC50 at recombinant human ACC2 was 6 nM.
